According to ChEMBL document CHEMBL5346877, “A-ring-fused pyrazoles of dihydrotestosterone targeting prostate cancer cells via the downregulation of the androgen receptor” (Eur J Med Chem, 2023):
pIC50: −log10 of the molar value. Activity calls are given as the source filed them. The rule behind the calls is not given here.

How the values were obtained:
LAPC4 [1] = assay: Antiproliferative activity against human LAPC4 cells assessed as viable cells at 2 to 10 uM incubated for 24 to 48 hrs by resazurin dye based assay; type: functional; conditions: dose 2-10 µM, time 24-48 hrs
LAPC4 [2] = assay: Cytotoxicity against human LAPC4 cells assessed as cell viability at 20 uM incubated for 72 hrs by resazurin dye based microplate reader assay; type: functional; conditions: read-out: Activity
DU-145 [3] = assay: Induction of cell cycle arrest in human DU-145 cells assessed as reduction S phase cells incubated for 48 hrs; type: functional, cell-based
LAPC4 [4] = assay: Induction of cell cycle arrest in human LAPC4 cells assessed as reduction S phase cells incubated for 48 hrs; type: functional, cell-based
[5] = biological target: T1, Androgen receptor (Homo sapiens) (UniProt P10275); assay: Antagonist activity at AR in human LNCaP-abl cells assessed as reduction in PSA expression at 10 uM incubated for 24 hrs in presence of R1881 by Western blotting analysis; type: cell-based; conditions: filed as antagonist
T1 sequence (whole entry): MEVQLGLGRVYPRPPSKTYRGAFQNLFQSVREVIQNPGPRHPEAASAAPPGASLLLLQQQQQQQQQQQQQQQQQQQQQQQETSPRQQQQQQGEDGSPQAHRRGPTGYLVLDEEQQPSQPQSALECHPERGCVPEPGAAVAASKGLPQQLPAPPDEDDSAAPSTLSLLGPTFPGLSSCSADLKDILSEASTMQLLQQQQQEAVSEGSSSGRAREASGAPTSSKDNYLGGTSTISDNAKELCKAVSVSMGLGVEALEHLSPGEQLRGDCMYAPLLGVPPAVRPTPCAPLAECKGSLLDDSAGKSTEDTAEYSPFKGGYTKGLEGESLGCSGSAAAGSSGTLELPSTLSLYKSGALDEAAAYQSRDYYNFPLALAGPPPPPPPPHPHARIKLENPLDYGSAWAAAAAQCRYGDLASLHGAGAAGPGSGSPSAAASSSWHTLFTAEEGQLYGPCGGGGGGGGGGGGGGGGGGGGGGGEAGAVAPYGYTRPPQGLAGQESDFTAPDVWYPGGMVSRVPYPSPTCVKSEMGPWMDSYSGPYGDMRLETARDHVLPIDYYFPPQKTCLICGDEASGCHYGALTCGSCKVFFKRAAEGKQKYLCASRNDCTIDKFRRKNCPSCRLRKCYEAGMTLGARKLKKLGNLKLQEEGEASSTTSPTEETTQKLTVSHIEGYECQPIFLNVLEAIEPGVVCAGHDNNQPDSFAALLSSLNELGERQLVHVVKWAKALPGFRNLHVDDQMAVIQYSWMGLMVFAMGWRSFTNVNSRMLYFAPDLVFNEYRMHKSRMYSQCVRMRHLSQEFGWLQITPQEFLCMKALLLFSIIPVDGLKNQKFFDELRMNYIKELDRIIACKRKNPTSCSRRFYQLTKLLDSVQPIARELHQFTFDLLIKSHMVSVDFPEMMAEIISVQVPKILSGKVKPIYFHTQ

[6] = biological target: T1, Androgen receptor (Homo sapiens); assay: Binding affinity to His6 tagged recombinant human AR LBD expresssed in Escherichia coli BL21(DE3) cells by MST assay; conditions: filed as antagonist
Androgen receptor = biological target: T2, Androgen receptor (Homo sapiens, UniProt P10275); assay: Antagonist activity at AR transcription in human 22Rv1 cells incubated for 24 hrs in presence of R1881; type: cell-based
T2 sequence (P10275 whole entry): T1 sequence (whole entry)

[7] = biological target: T1, Androgen receptor (Homo sapiens); assay: Antagonist activity at AR in human LAPC4 cells assessed as reduction in Nkx3.1 expression at 10 uM incubated for 24 hrs in presence of R1881 by Western blotting analysis; type: cell-based; conditions: filed as antagonist
[8] = biological target: T1, Androgen receptor (Homo sapiens); assay: Antagonist activity at AR transcription in human LAPC4 cells assessed as reduction in AR mRNA expression at 10 uM incubated for 24 hrs in presence of R1881 by qPCR analysis; type: cell-based; conditions: filed as antagonist
DU-145 [9] = assay: Cytotoxicity against human DU-145 cells assessed as cell viability at 20 uM incubated for 72 hrs by resazurin dye based microplate reader assay; type: functional; conditions: read-out: Activity
[10] = biological target: T1, Androgen receptor (Homo sapiens); assay: Antagonist activity at AR in human 22Rv1 cells incubated for 24 hrs in presence of R1881 by Western blotting analysis; type: cell-based; conditions: filed as antagonist
LAPC4 [11] = assay: Induction of apoptosis in human LAPC4 cells assessed as cleaved caspase-7 expression at 2 to 10 uM incubated for 48 to 72 hrs; type: functional, cell-based; conditions: dose 2-10 µM, time 48-72 hrs
[12] = biological target: T1, Androgen receptor (Homo sapiens); assay: Antagonist activity at AR in human LNCaP cells assessed as reduction in PSA expression at 2 to 10 uM incubated for 72 hrs by Western blotting analysis; type: cell-based; set-up: scale not given: the % may be the effect or the level left; conditions: filed as antagonist, dose 2-10 µM
[13] = biological target: T1, Androgen receptor (Homo sapiens); assay: Antagonist activity at AR transcription in human 22Rv1 cells assessed as reduction in PSA mRNA expression at 10 uM incubated for 24 hrs in presence of R1881 by qPCR analysis; type: cell-based; conditions: filed as antagonist
CWR22R [14] = assay: Cytotoxicity against human 22Rv1 cells assessed as cell viability at 20 uM incubated for 72 hrs by resazurin dye based microplate reader assay; type: functional; conditions: read-out: Activity
LAPC4 [15] = assay: Reversal of AR degradation in human LAPC4 cells at 10 to 20 uM preincubated for 1 hr followed by bav-degalutamide addition and measured after 4 hrs; type: functional, cell-based; conditions: dose 10-20 µM, time 5.0 hrs
CWR22R [16] = assay: Induction of cell cycle arrest in human 22Rv1 cells assessed as reduction S phase cells incubated for 48 hrs; type: functional, cell-based
LAPC4 [17] = assay: Antiproliferative activity against human LAPC4 cells assessed as decrease in […] at 2 to 10 uM incubated for 24 to 72 hrs by resazurin dye based assay; type: functional, cell-based; conditions: dose 2-10 µM, time 24-72 hrs
LAPC4 [18] = assay: Inhibition of colony formation in human LAPC4 cells at 10 uM incubated for 10 days by crystal violet staining based assay; type: functional; conditions: LAPC4, 240 h, time 10 day
[19] = biological target: T1, Androgen receptor (Homo sapiens); assay: Antagonist activity at AR in human LAPC4 cells assessed as reduction in PSA expression at 10 uM incubated for 24 hrs in presence of R1881 by Western blotting analysis; type: cell-based; conditions: filed as antagonist
LAPC4 [20] = assay: Inhibition of colony formation in human LAPC4 cells at 5 uM incubated for 10 days by crystal violet staining based assay; type: functional, cell-based; conditions: time 10.0 day
LAPC4 [21] = assay: Induction of apoptosis in human LAPC4 cells assessed as cleaved caspase-3 expression at 2 to 10 uM incubated for 48 to 72 hrs; type: functional, cell-based; conditions: dose 2-10 µM, time 48-72 hrs
[22] = biological target: T1, Androgen receptor (Homo sapiens); assay: Antagonist activity at AR in human LNCaP-abl cells assessed as reduction in phosphorylation at S81 at 10 uM incubated for 24 hrs in presence of R1881 by Western blotting analysis; type: cell-based; conditions: filed as antagonist
[23] = biological target: T1, Androgen receptor (Homo sapiens); assay: Antagonist activity at AR in human LNCaP cells assessed as reduction in Nkx3.1 expression at 2 to 10 uM incubated for 72 hrs by Western blotting analysis; type: cell-based; set-up: scale not given: the % may be the effect or the level left; conditions: filed as antagonist, dose 2-10 µM
[24] = biological target: T1, Androgen receptor (Homo sapiens); assay: Antagonist activity at AR in human LNCaP cells incubated for 24 hrs in presence of R1881 by Western blotting analysis; type: cell-based; conditions: filed as antagonist
[25] = biological target: T1, Androgen receptor (Homo sapiens); assay: Antagonist activity at AR in human LAPC4 cells incubated for 24 hrs in presence of R1881 by Western blotting analysis; type: cell-based; conditions: filed as antagonist, dose 1.25-10 µM
[26] = biological target: T1, Androgen receptor (Homo sapiens); assay: Antagonist activity at AR transcription in human LAPC4 cells assessed as reduction in PSA mRNA expression at 10 uM incubated for 24 hrs in presence of R1881 by qPCR analysis; type: cell-based; conditions: filed as antagonist
LAPC4 [27] = assay: Induction of apoptosis in human LAPC4 cells assessed as PARP-1 expression at 2 to 10 uM incubated for 48 to 72 hrs; type: functional, cell-based; conditions: dose 2-10 µM, time 48-72 hrs
LAPC4 [28] = assay: Antiproliferative activity against human LAPC4 cells; type: functional; conditions: time 72 hrs

`Cc1c2c(nn1-c1ccc(F)cc1)C[C@@H]1CC[C@@H]3[C@H](CC[C@]4(C)[C@@H](O)CC[C@@H]34)[C@@]1(C)C2` was tested, and the Activity (LAPC4 [1]) was >80%, the viability at 20 µM (LAPC4 [2]) was 38% and the Activity (DU-145 [3]) was “inactive”. The Activity (LAPC4 [4]) was “Active”, the Activity [5] was “Active” and the Activity [6] was “Active”. The pIC50 (Androgen receptor) was 5.93, the Activity [7] was “Active” and the Activity [8] was “Active”. For the same compound, the viability at 20 µM (DU-145 [9]) was ≥ 100%, the Activity [10] was “Dose-Dependent Effect” and the Activity (LAPC4 [11]) was “Active”. For the same compound, the Activity [12] was 100%, the Activity [13] was “Active” and the viability at 20 µM (CWR22R [14]) was 26%. The Activity (LAPC4 [15]) was “Active”, the Activity (CWR22R [16]) was “Active” and the Activity (LAPC4 [17]) was “Active”. The inhibition at 10 µM (LAPC4 [18]) was 3%, the Activity [19] was “Active” and the inhibition (LAPC4 [20]) was “Active”. The Activity (LAPC4 [21]) was “Active”, the Activity [22] was “Active” and the Activity [23] was 100%. For the same compound, the Activity [24] was “Dose-Dependent Effect”, the Activity [25] was “Dose-Dependent Effect” and the Activity [26] was “Active”. For the same compound, the Activity (LAPC4 [27]) was “Active” and the GI50 (LAPC4 [28]) was 7.9 µM.
